# Assays:
# AP1 = experiment: EMSA of AP1 DNA binding in MCF7 cells; type: cell-based, human; conditions: FIG. 7B
# Protocol: For the EMSA, the MCF7 cells were pre-treated with varying concentrations of CpdA (10, 1, 0.1, 0.01, and 0.001 μM) and DEX (0.1 μM) for two hours and subsequently TNF-induced or non-TNF-induced during 30 min at 2000 IU/ml. After the induction period, nuclear extracts were examined in EMSA assays. Cells were washed with ice-cold PBS, scraped off, and pelleted in 15 ml of PBS by centrifugation for 5 min at 2600 rpm at 4° C. and lysed for 30 minutes at 4° C. in Totex buffer (20 mM HEPES (pH 7.9), 350 mM NaCl, 1 mM MgCl, 0.5 mM EDTA, 0.1 mM EGTA, 5 mM DTT, 20% glycerol, 1% NP-40, 0.1% PMSF, 1% aprotinin (4 mg/ml leupeptin). Supernatants from a 4000-rpm 10-min centrifugation were collected, aliquoted and stored at −20° C. until further use. Radiolabelled oligonucleotides that correspond to a consensus κB DNA-binding element of the IL-6 promoter, and of activating protein 1 (AP-1) DNA target-were used for appropriate EMSA's. These oligonucleotides of about 25 nucleotides comprise centrally the transcription factor binding motif. […] The samples were analyzed by electrophoresis on 6% native polyacrylamide gels. […] Visualization and quantitation of radioactive signals was carried out by a Phosphorlmager and scanned using a bioimaging analyzer (Personal Molecular Imager® FX Bio-Rad). […]
# [1] = test system: pE-selectin-Luc (E-selectin promoter); experiment: pE-selectin-Luc reporter gene assay in TNF-induced L929sA cells; type: cell-based, mouse; conditions: 10 microM; TNF-induced; FIG. 1
# From the text: L929sA mouse fibroblast cells were stably transfected with pE-selectine-Luc (also referred to as pELAM-luc) by the calcium phosphate precipitation procedure described by De Bosscher et al. in Proc. Natl. Acad. Sci. USA (1997) 94, 13504-13509. The co-transfected plasmid pPGKβGeobpA, conferring resistance to G418 and expressing constitutive β-galactosidase enzymatic activity, was used as an internal control. L929sA cells were transiently transfected by the DEAE-dextran transfection method described by De Bosscher et al. (cited supra).
# Recombinant murine tumor necrosis factor (TNF) was produced according to a method standard in the art. Dexamethasone (hereinafter abbreviated as DEX) commercially available from Sigma, and 2-(4-acetoxyphenyl)-2-chloro-N-methyl-ethylammonium chloride (hereinafter abbreviated as compound A) was synthesized according to Louw et al. in Biochemical Pharmacology (1997) 53, 189-197). A stock solution was prepared in ethanol (for DEX) or DMSO (for both comparative compound A and for the compound of example 6 according to this invention, i.e. 1-[4-(benzoyloxy)phenyl]-2-[(tert-butoxy-carbonyl)-methylamino]ethyl-1H-imidazole-1-carboxylate), aliquoted and stored at −70° C.
# Induction was performed in triplicate for each independent experiment, which was carried out at least twice. Induction with DEX, compound A, and for the compound of example 6 according to this invention at 1 μM, 10 μM or respectively any other indicated concentration were performed at −2 hours for a total of 8 hours, while TNF (2000 IU/ml) was added at time point zero and left on the cells for 6 hours. After induction, cells were lysed with a lysis buffer (commercially available from Tropix, Bedford, Massachussets) and samples were assayed according to the manufacturer's instructions (Promega Biotech).
# In order to investigate whether the inhibitory effect of compound A or the compound of example 6 according to this invention is directed at the transcriptional level of NF-κB-driven genes, the NF-κB-dependent physiological promoter construct, pE-selectin-Luc stably integrated into L929sA cells, was tested. […] DEX-mediated and compound A-mediated inhibition of TNF-induced gene expression were used as controls (FIG. 1). In the appended figures, NI stands for non-induced (either in presence of solvent controls like ethanol or DMSO).
# NF-κB = experiment: EMSA of NF-κB DNA binding in Namalwa B cells; type: cell-based, human; conditions: 10, 0.1, 0.01, 0.001 μM, TNF 2000 IU/ml, FIG. 8B
smiles,measurement,setting,value
"CNCC(Cl)c1ccc(OC(C)=O)cc1.Cl (stereo not drawn) [CpdA, 2-(4-acetoxyphenyl)-2-chloro-N-methyl-ethylammonium chloride]",DNA-binding of transcription factor AP1 (EMSA),AP1,not affected
same,Inhibition of the expression of E-selectin,[1],inhibit the expression of E-selectin
same,NF-κB binding to kB DNA sequence (EMSA),NF-κB,inhibits NF-κB binding to kB DNA sequence

# Source: patent US8039501B2, “Synephrine derivatives useful as anti-inflammatory agents” (Universiteit Gent, priority 2005, dated 2011)
